Measurements from US11980596B2 (priority 2017, dated 2024).

System: subjects with MDD at imminent risk for suicide
[1] = esketamine 84 mg, double-blind phase, N = 35

Description: The study consisted of a screening evaluation performed within 24 hours (or up to 48 hours upon consultation with the Sponsor's medical monitor) prior to Day 1 dose, immediately followed by a 25-day double-blind treatment phase (Day 1 to 25) with twice a week dosing, and a 56-day follow up phase (Day 26 to Day 81). The study was designed as a POC study and therefore a two-sided 0.20 significance level was used.
Among 68 randomized subjects, 66 were included in the safety analysis set (defined as receiving at least one dose of study medication in the double-blind phase). […] All safety subjects (N=66) were included in the intent-to-treat (ITT) analysis set (defined as receiving at least one dose of study medication during the double-blind phase and having both the baseline and the Day 1, 4-hour postdose evaluation for the MADRS total score). Forty-nine subjects were included in the safety (FU) analysis set (defined as all subjects who have at least 1 visit during the follow up phase).

`CN[C@]1(c2ccccc2Cl)CCCCC1=O` [esketamine, (S)-2-(2-chlorophenyl)-2-(methylamino)cyclohexanone] was tested, and the “Discontinued from the double-blind phase due to (treatment-emergent) adverse events” value (84 mg) was 5 subjects, the “Subjects with a serious adverse event” value (84 mg group, follow up phase) was 1 subjects and the “TEAE: dissociation” value (84 mg, double-blind phase) was 31.4%. For the same compound, the “TEAE: dizziness” value (84 mg, double-blind phase) was 34.3%, the “TEAE: dysgeusia” value (84 mg, double-blind phase) was 31.4% and the “TEAE: headache” value (84 mg, double-blind phase) was 31.4%. The “TEAE: nausea” value (84 mg, double-blind phase) was 37.1%, the “TEAE: vomiting” value (84 mg, double-blind phase) was 20.0% and the “Withdrawn from double-blind phase: Adverse event” value (esketamine 84 mg, all randomized analysis set, N = 36) was 5 (13.9%) subjects (%). For the same compound, the “1 or more serious TEAE” value [1] was 4 (11.4%) subjects (%), the “Serious TEAE: Agitation” value [1] was 1 (2.9%) subjects (%) and the “Serious TEAE: Depressive symptom” value [1] was 1 (2.9%) subjects (%). The “Serious TEAE: Psychiatric disorders” value [1] was 4 (11.4%) subjects (%), the “Serious TEAE: Suicidal ideation” value [1] was 2 (5.7%) subjects (%) and the TEAE [1] was 33 (94.3%) subjects (%). For the same compound, the “TEAE Abdominal pain, no. subjects” value [1] was 0, the “TEAE Acne, % of subjects” value [1] was “(5.7%)” and the “TEAE Acne, no. subjects” value [1] was 2. The “TEAE Agitation, % of subjects” value [1] was “(8.6%)”, the “TEAE Agitation, no. subjects” value [1] was 3 and the “TEAE Anxiety, % of subjects” value [1] was “(17.1%)”. The “TEAE Anxiety, no. subjects” value [1] was 6, the “TEAE Blepharospasm, no. subjects” value [1] was 0 and the “TEAE Blood pressure increased, % of subjects” value [1] was “(5.7%)”. For the same compound, the “TEAE Blood pressure increased, no. subjects” value [1] was 2, the “TEAE Constipation, no. subjects” value [1] was 0 and the “TEAE Diarrhea, % of subjects” value [1] was “(8.6%)”. The “TEAE Diarrhea, no. subjects” value [1] was 3, the “TEAE Diplopia, % of subjects” value [1] was “(5.7%)” and the “TEAE Diplopia, no. subjects” value [1] was 2. For the same compound, the “TEAE Dissociation, % of subjects” value [1] was “(31.4%)”, the “TEAE Dissociation, no. subjects” value [1] was 11 and the “TEAE Dizziness postural, % of subjects” value [1] was “(5.7%)”. The “TEAE Dizziness postural, no. subjects” value [1] was 2, the “TEAE Dizziness, % of subjects” value [1] was “(34.3%)” and the “TEAE Dizziness, no. subjects” value [1] was 12. For the same compound, the “TEAE Dry mouth, % of subjects” value [1] was “(8.6%)”, the “TEAE Dry mouth, no. subjects” value [1] was 3 and the “TEAE Dysgeusia, % of subjects” value [1] was “(31.4%)”. For the same compound, the “TEAE Dysgeusia, no. subjects” value [1] was 11, the “TEAE Ear and labyrinth disorders, % of subjects” value [1] was “(25.7%)” and the “TEAE Ear and labyrinth disorders, no. subjects” value [1] was 9. For the same compound, the “TEAE Epistaxis, no. subjects” value [1] was 0, the “TEAE Euphoric mood, % of subjects” value [1] was “(11.4%)” and the “TEAE Euphoric mood, no. subjects” value [1] was 4. For the same compound, the “TEAE Eye disorders, % of subjects” value [1] was “(20.0%)”, the “TEAE Eye disorders, no. subjects” value [1] was 7 and the “TEAE Fatigue, % of subjects” value [1] was “(5.7%)”. The “TEAE Fatigue, no. subjects” value [1] was 2, the “TEAE Feeling abnormal, % of subjects” value [1] was “(8.6%)” and the “TEAE Feeling abnormal, no. subjects” value [1] was 3. For the same compound, the “TEAE Feeling cold, % of subjects” value [1] was “(5.7%)”, the “TEAE Feeling cold, no. subjects” value [1] was 2 and the “TEAE Flatulence, % of subjects” value [1] was “(2.9%)”. The “TEAE Flatulence, no. subjects” value [1] was 1, the “TEAE Gastrointestinal disorders, % of subjects” value [1] was “(54.3%)” and the “TEAE Gastrointestinal disorders, no. subjects” value [1] was 19. For the same compound, the “TEAE General disorders and administration site conditions, % of subjects” value [1] was “(28.6%)”, the “TEAE General disorders and administration site conditions, no. subjects” value [1] was 10 and the “TEAE Headache, % of subjects” value [1] was “(31.4%)”. For the same compound, the “TEAE Headache, no. subjects” value [1] was 11, the “TEAE Hyperacusis, % of subjects” value [1] was “(5.7%)” and the “TEAE Hyperacusis, no. subjects” value [1] was 2. For the same compound, the “TEAE Hyperhidrosis, % of subjects” value [1] was “(5.7%)”, the “TEAE Hyperhidrosis, no. subjects” value [1] was 2 and the “TEAE Hypoesthesia oral, % of subjects” value [1] was “(5.7%)”. For the same compound, the “TEAE Hypoesthesia oral, no. subjects” value [1] was 2, the “TEAE Hypoesthesia, % of subjects” value [1] was “(8.6%)” and the “TEAE Hypoesthesia, no. subjects” value [1] was 3. For the same compound, the “TEAE Infections and infestations, % of subjects” value [1] was “(2.9%)”, the “TEAE Infections and infestations, no. subjects” value [1] was 1 and the “TEAE Insomnia, % of subjects” value [1] was “(8.6%)”. The “TEAE Insomnia, no. subjects” value [1] was 3, the “TEAE Intranasal paranesthesia, no. subjects” value [1] was 0 and the “TEAE Investigations, % of subjects” value [1] was “(14.3%)”. The “TEAE Investigations, no. subjects” value [1] was 5, the “TEAE Nasal congestion, % of subjects” value [1] was “(2.9%)” and the “TEAE Nasal congestion, no. subjects” value [1] was 1. The “TEAE Nasal discomfort, % of subjects” value [1] was “(8.6%)”, the “TEAE Nasal discomfort, no. subjects” value [1] was 3 and the “TEAE Nausea, % of subjects” value [1] was “(37.1%)”. The “TEAE Nausea, no. subjects” value [1] was 13, the “TEAE Nervous system disorders, % of subjects” value [1] was “(71.4%)” and the “TEAE Nervous system disorders, no. subjects” value [1] was 25. The “TEAE Oropharyngeal pain, % of subjects” value [1] was “(5.7%)”, the “TEAE Oropharyngeal pain, no. subjects” value [1] was 2 and the “TEAE Panic attack, no. subjects” value [1] was 0. For the same compound, the “TEAE Paresthesia oral, % of subjects” value [1] was “(5.7%)”, the “TEAE Paresthesia oral, no. subjects” value [1] was 2 and the “TEAE Paresthesia, % of subjects” value [1] was “(17.1%)”. The “TEAE Paresthesia, no. subjects” value [1] was 6, the “TEAE Pharyngeal hypoesthesia, % of subjects” value [1] was “(5.7%)” and the “TEAE Pharyngeal hypoesthesia, no. subjects” value [1] was 2. For the same compound, the “TEAE Pollakiuria, no. subjects” value [1] was 0, the “TEAE Psychiatric disorders, % of subjects” value [1] was “(57.1%)” and the “TEAE Psychiatric disorders, no. subjects” value [1] was 20. For the same compound, the “TEAE Rash, % of subjects” value [1] was “(2.9%)”, the “TEAE Rash, no. subjects” value [1] was 1 and the “TEAE Renal and urinary disorders, % of subjects” value [1] was “(2.9%)”. The “TEAE Renal and urinary disorders, no. subjects” value [1] was 1, the “TEAE Respiratory, thoracic and mediastinal disorders, % of subjects” value [1] was “(25.7%)” and the “TEAE Respiratory, thoracic and mediastinal disorders, no. subjects” value [1] was 9. The “TEAE Rhinalgia, no. subjects” value [1] was 0, the “TEAE Rhinorrhoea, no. subjects” value [1] was 0 and the “TEAE Sedation, % of subjects” value [1] was “(17.1%)”. For the same compound, the “TEAE Sedation, no. subjects” value [1] was 6, the “TEAE Skin and subcutaneous tissue disorders, % of subjects” value [1] was “(14.3%)” and the “TEAE Skin and subcutaneous tissue disorders, no. subjects” value [1] was 5. For the same compound, the “TEAE Somnolence, % of subjects” value [1] was “(11.4%)”, the “TEAE Somnolence, no. subjects” value [1] was 4 and the “TEAE Suicidal ideation, % of subjects” value [1] was “(5.7%)”. For the same compound, the “TEAE Suicidal ideation, no. subjects” value [1] was 2, the “TEAE Throat irritation, % of subjects” value [1] was “(8.6%)” and the “TEAE Throat irritation, no. subjects” value [1] was 3. For the same compound, the “TEAE Tinnitus, % of subjects” value [1] was “(5.7%)”, the “TEAE Tinnitus, no. subjects” value [1] was 2 and the “TEAE Toothache, no. subjects” value [1] was 0. The “TEAE Upper respiratory tract infection, no. subjects” value [1] was 0, the “TEAE Vertigo, % of subjects” value [1] was “(11.4%)” and the “TEAE Vertigo, no. subjects” value [1] was 4. For the same compound, the “TEAE Vision blurred, % of subjects” value [1] was “(8.6%)”, the “TEAE Vision blurred, no. subjects” value [1] was 3 and the “TEAE Vomiting, % of subjects” value [1] was “(20.0%)”. The “TEAE Vomiting, no. subjects” value [1] was 7, the “TEAE Weight increased, % of subjects” value [1] was “(5.7%)” and the “TEAE Weight increased, no. subjects” value [1] was 2. For the same compound, the “TEAE leading to death” value [1] was 0 subjects (%), the “TEAE leading to drug withdrawn” value [1] was 5 (14.3%) subjects (%) and the “TEAE leading to study discontinuation: Aggression” value [1] was 1 (2.9%) subjects (%). The “TEAE leading to study discontinuation: Agitation” value [1] was 1 (2.9%) subjects (%), the “TEAE leading to study discontinuation: Cardiac disorders” value [1] was 1 (2.9%) subjects (%) and the “TEAE leading to study discontinuation: Dissociative disorder” value [1] was 0 subjects (%). The “TEAE leading to study discontinuation: Dizziness” value [1] was 1 (2.9%) subjects (%).
